“And” between values parts separate entries of the source, which are not always exact repeats. Equal entries are not always repeated.
Legend:
[1] = system: E. coli MG1655; settings: 40 mM; cited from earlier work
[2] = system: BW25113; settings: phenol at 50-75% of the MIC in LB at 37° C.; cited from earlier work
[3] = system: E. coli BW25113; settings: up to 20 mM C8, pH 7.0, 37° C.; cited from earlier work
[4] = system: E. coli MG1655; test: Octanoic acid tolerance characterization (specific growth rate); assay type: cell-based
Procedure: 2.2 Strain Tolerance Characterization: Octanoic acid tolerance was characterized in 50 ml MOPS defined minimal medium with 2.0% (wt/v) dextrose and 10 mM octanoic acid (1.44 g/L) in 250 ml baffled flasks at 220 rpm and initial pH at 7.0, 30° C. MOPS media contains the following: 8.37 g/L 3-(N-morpholino)propanesulfonic acid (MOPS), 0.72 g/L tricine, 2.92 g/L NaCl, 0.51 g/L NH4Cl, 1.6 g/L KOH, 50 mg/L MgCl2, 48 mg/L K2SO4, 348 mg/L K2HPO4, 0.215 mg/L Na2SeO3, 0.303 mg/L Na2MoO4.2H2O, 0.17 mg/L ZnCl2, 2.5 μg/L FeCl2.4H2O, 0.092 μg/L CaCl2.2H2O, 0.031 μg/L H3BO3, 0.020 μg/L MnCl2.4H2O, 0.0090 μg/L CoCl2.4H2O, and 0.0020 μg/L CuCl2.4H2O [43, 44]. Specific growth rate μ (h-1) was calculated by fitting the equation OD=OD0e^μt over the duration of the exponential growth phase. […] Dry cell weight (DCW) was calculated from the optical density at 550 nm (1 OD550=0.333 g DCW/L).

[5] = system: E. coli MG1655; test: Membrane integrity (SYTOX Green, flow cytometry) during C8 challenge; assay type: cell-based
Procedure: Membrane Integrity Characterization: Cells were centrifuged, washed twice, and then resuspended in PBS buffer (pH 7.0) at a final OD550 of ˜1. One hundred microliter (100 μl) of this suspension was mixed with 900 μl of PBS buffer and SYTOX Green (Invitrogen) was added to a final concentration of 5.0 μM. After resting at room temperature for 15 minutes, cells were analyzed by a BD Biosciences FACSCanto II flow cytometer equipped with standard factory-installed 488 nm excitation laser, signal collection optics, and fluorescence emission filter configuration. Instrument sheath fluid was filtered (0.22 μm) PBS buffer. Green fluorescence from stained cells was collected in the FL1 channel (525/50 nm). Forward scatter (FSC), side scatter (SSC), and FL1 (Green) parameters were collected as logarithmic signals. All data collections were performed at low flow rate setting (˜12 μl/min) and cell concentrations were such that the event rate was below 5,000 events/s. All samples were analyzed immediately after staining. Background noise and small debris was eliminated from data collection via a side scatter signal threshold that was established by examining samples containing only SYTOX Green staining buffer. Bacteria in SYTOX Green-stained samples were readily identified on the basis of FSC and SSC signals and an appropriate “Cell” gate was drawn to limit FL1 analysis to bacteria and exclude non-cell events. A minimum of 20,000 cell-gated events were collected for each sample. Green fluorescence data for these “cell” events were plotted as histograms showing the signal distribution of bacteria in the sample [14]. Flow cytometry data for this work is available via Flow Repository (https://flowrepository.org) (FR-FCM-ZY2B).

[6] = system: BW25113; settings: 10 vol % hexane in LB at 37° C.; cited from earlier work
[7] = system: E. coli LY01; settings: cited from earlier work
[8] = system: E. coli Frag1; settings: 8 mM acetate; cited from earlier work
[9] = system: E. coli KO11; settings: cited from earlier work

In the case of `CCCCCC(=O)O` [hexanoic acid], the growth inhibition [1] is listed as “completely inhibitory”.

For `Oc1ccccc1` [Phenol], the “survival on deletion of fadL” value [2] is listed as “Deletion of fadL from BW25113 had no impact on survival”.

In the case of `CCCCCCCC(=O)O` [C8, octanoic acid], the “magnitude of intracellular acidification on deletion of ompF” value [3] is given as “assessed via the maximum OD. Deletion of ompF decreased the magnitude”, the specific growth rate ([4]; 10 mM C8, strain Gen-empty) is given as 0.31 h⁻¹ and the specific growth rate ([4]; 10 mM C8, strain Gen-fadL) is given as 0.33 h⁻¹. The specific growth rate ([4]; 10 mM C8, strain MG1655, MOPS+2% dextrose, 30° C., initial pH 7.0) was 0.31 h⁻¹, the specific growth rate ([4]; 10 mM C8, strain Pla-empty) was 0.31 h⁻¹ and the specific growth rate ([4]; 10 mM C8, strain Pla-fadL) was 0.33 h⁻¹ and 0.32 h⁻¹. For the same compound, the specific growth rate ([4]; 10 mM C8, strain ΔfadL) was 0.27 h⁻¹, the specific growth rate ([4]; 10 mM C8, strain ΔompF+Pla-fadL) was 0.36 h⁻¹ and the “specific growth rate, higher than control” value ([4]; 10 mM C8, ΔompF+Pla-fadL vs Pla-empty) was 18%. For the same compound, the “specific growth rate, higher than individual increased expression of fadL” value ([4]; 10 mM C8, ΔompF+Pla-fadL vs Pla-fadL) was 12%, the “specific growth rate, higher than individual deletion of ompF” value ([4]; 10 mM C8, ΔompF+Pla-fadL vs ΔompF+Pla-empty) was 10% and the “specific growth rate, higher than control” value ([4]; C8 challenge, Gen-fadL vs Gen-empty) was 7%. For the same compound, the “specific growth rate, higher than control” value ([4]; C8 challenge, Pla-fadL vs Pla-empty) was 8%, the “specific growth rate, lower than MG1655” value ([4]; C8 challenge, ΔfadL vs MG1655) was 12% and the “specific growth rate, higher than MG1655” value ([4]; C8 challenge, ΔompF vs MG1655) was 7%. For the same compound, the growth inhibition [1] was “completely inhibitory”, the “increase in membrane integrity” value ([5]; 10 mM C8, Gen-fadL vs Gen-empty) was 14% and the “increase in membrane integrity” value ([5]; 10 mM C8, Pla-fadL vs Pla-empty) was 25%. The “percentage of cells with intact membranes, lower than MG1655” value ([5]; 10 mM C8, ΔfadL vs MG1655) was 23%, the “increase in percentage of cells with intact membranes” value ([5]; 10 mM C8, ΔompF vs wild-type control strain) was 18% and the “increase in percentage of cells with intact membranes” value ([5]; C8 challenge, ΔompF+Pla-fadL vs Pla-empty) was 37%.

For `CCCCCC` [Hexane], the “survival (assessed by OD) on deletion of fadL” value [6] is given as “Deletion of fadL from BW25113 increased survival, as assessed by OD”.

In the case of `O=Cc1ccco1` [Furfural], the “concentration that inhibits growth completely” value [7] is listed as 3.5 g/L.

In the case of `CC(=O)O` [acetate], the “reduction of specific growth rate” value [8] is listed as 50%.

For `CCO` [ethanol], the growth ([9]; 35 g/L ethanol, engineered E. coli KO11) is given as “grows poorly” and the cells surviving challenge ([9]; 100 g/L ethanol, KO11) is given as “less than 10%”.
